# Measured values from article PMC12711630 (Cell Reports. Physical Science, 2025).
# Several values for one entry are separate records, joined by “and”; a condition that tells them apart may be missing. Equal entries are not always repeated. Where two headings read alike, the source gives them in different places. Marks after values point to notes of the source that are not given here.
# How the values were obtained:
# [1] = biological target: T1, (α4)3(β2)2 (LS isoform) α4β2 nAChR WT (Homo sapiens, UniProt P17787+P43681); experiment: Two-electrode voltage clamp, Xenopus oocytes expressing LS α4β2 nAChR, wild type; type: cell-based
# T1 construct: expressed in transfected cells; host or cells: Xenopus laevis oocytes, nuclear injection of cDNA in plasmid pCI (10 α4 : 1 β2 for LS, 1 α4 : 10 β2 for HS)
# [2] = biological target: T2, human α4β2 nAChR (Homo sapiens, UniProt P17787+P43681); experiment: [3H]epibatidine radioligand binding (saturation and competition), membranes of transfected HEK 293 cells
# T2 construct: expressed in transfected cells; host or cells: HEK 293 cells, transient transfection with JetPEI, membranes
# [3] = biological target: T3, human α7 nAChR (Homo sapiens, UniProt P36544); experiment: [125I]α-Bgtx radioligand binding (saturation and competition), membranes of transfected SH-SY5Y cells; settings: competition with [125I]α-Bgtx 2-3 nM, Cheng-Prusoff
# T3 construct: expressed in transfected cells; host or cells: SH-SY5Y cells, transient transfection with JetPEI, membranes
# [4] = Spectrophotometric titration pKa determination; settings: for protonated fraction of ammonium center: at pH 7.5
# [5] = physchem
# [6] = biological target: T4, 5-HT3A receptor (Homo sapiens, UniProt P46098); experiment: FlexStation fluorescent membrane-potential dye assay, transfected HEK 293 cells; type: cell-based; settings: for functional response at 5-HT3A receptors: concentrations up to 30 µM; for EC50: n=4
# T4 sequence (P46098 24-478): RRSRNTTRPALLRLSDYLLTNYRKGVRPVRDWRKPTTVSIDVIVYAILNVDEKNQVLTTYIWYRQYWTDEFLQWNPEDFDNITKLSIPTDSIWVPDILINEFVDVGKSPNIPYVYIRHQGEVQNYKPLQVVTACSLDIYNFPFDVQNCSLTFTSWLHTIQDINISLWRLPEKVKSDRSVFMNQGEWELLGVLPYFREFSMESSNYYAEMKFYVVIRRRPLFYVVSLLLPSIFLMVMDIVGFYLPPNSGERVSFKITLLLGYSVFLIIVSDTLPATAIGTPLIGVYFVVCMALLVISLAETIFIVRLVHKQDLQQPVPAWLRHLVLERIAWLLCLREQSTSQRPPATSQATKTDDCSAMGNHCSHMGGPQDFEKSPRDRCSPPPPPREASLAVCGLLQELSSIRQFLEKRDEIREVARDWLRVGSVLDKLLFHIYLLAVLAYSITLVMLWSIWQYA
# [7] = biological target: T5, human α3β4 nAChR (Homo sapiens, UniProt P30926+P32297); experiment: [3H]epibatidine radioligand binding (saturation and competition), membranes of transfected HEK 293 cells
# T5 construct: expressed in transfected cells; host or cells: HEK 293 cells, transient transfection with JetPEI, membranes
# [8] = biological target: T6, (α4)2(β2)3 (HS isoform) α4β2 nAChR WT (Homo sapiens, UniProt P17787+P43681); experiment: Two-electrode voltage clamp, Xenopus oocytes expressing HS α4β2 nAChR, wild type; type: cell-based; settings: for EC50: varenicline variants series
# T6 construct: expressed in transfected cells; host or cells: Xenopus laevis oocytes, nuclear injection of cDNA in plasmid pCI (10 α4 : 1 β2 for LS, 1 α4 : 10 β2 for HS)
# [9] = biological target: T7, (α4)2(β2)3 (HS isoform) α4β2 nAChR (Homo sapiens, UniProt P17787+P43681); experiment: Inhibition of ACh EC80 current responses, Xenopus oocytes, HS isoform; type: cell-based
# T7 construct: expressed in transfected cells; host or cells: Xenopus laevis oocytes, nuclear injection of cDNA in plasmid pCI (10 α4 : 1 β2 for LS, 1 α4 : 10 β2 for HS)
# [10] = biological target: T4, 5-HT3A receptor; experiment: Inhibition of [3H]GR65630 binding, transfected HEK293 cell membranes; settings: for IC50: n=3
# [11] = biological target: T8, (α4)3(β2)2 (LS isoform) α4β2 nAChR (Homo sapiens, UniProt P17787+P43681); experiment: Inhibition of ACh EC80 current responses, Xenopus oocytes, LS isoform; type: cell-based
# T8 construct: expressed in transfected cells; host or cells: Xenopus laevis oocytes, nuclear injection of cDNA in plasmid pCI (10 α4 : 1 β2 for LS, 1 α4 : 10 β2 for HS)
# [12] = biological target: T9, (α4)2(β2)3 (HS isoform) α4β2 nAChR α4T183V (Homo sapiens, UniProt P17787+P43681, T183V); experiment: Two-electrode voltage clamp, Xenopus oocytes, HS α4β2 nAChR α4T183V; type: cell-based
# T9 construct: expressed in transfected cells; host or cells: Xenopus laevis oocytes, nuclear injection of cDNA in plasmid pCI
# [13] = biological target: T10, (α4)2(β2)3 (HS isoform) α4β2 nAChR β2S133Vα4T183V (Homo sapiens, UniProt P17787+P43681, S133V/T183V); experiment: Two-electrode voltage clamp, Xenopus oocytes, HS α4β2 nAChR β2S133Vα4T183V; type: cell-based
# T10 construct: expressed in transfected cells; host or cells: Xenopus laevis oocytes, nuclear injection of cDNA in plasmid pCI
# [14] = biological target: T11, (α4)3(β2)2 (LS isoform) α4β2 nAChR α4T183V (Homo sapiens, UniProt P17787+P43681, T183V); experiment: Two-electrode voltage clamp, Xenopus oocytes, LS α4β2 nAChR α4T183V; type: cell-based
# T11 construct: expressed in transfected cells; host or cells: Xenopus laevis oocytes, nuclear injection of cDNA in plasmid pCI
# [15] = biological target: T12, (α4)2(β2)3 (HS isoform) α4β2 nAChR β2S133V (Homo sapiens, UniProt P17787+P43681, S133V); experiment: Two-electrode voltage clamp, Xenopus oocytes, HS α4β2 nAChR β2S133V; type: cell-based
# T12 construct: expressed in transfected cells; host or cells: Xenopus laevis oocytes, nuclear injection of cDNA in plasmid pCI
# [16] = biological target: T13, (α4)3(β2)2 (LS isoform) α4β2 nAChR α4T139V (Homo sapiens, UniProt P17787+P43681, T139V); experiment: Two-electrode voltage clamp, Xenopus oocytes, LS α4β2 nAChR α4T139V; type: cell-based
# T13 construct: expressed in transfected cells; host or cells: Xenopus laevis oocytes, nuclear injection of cDNA in plasmid pCI
# [17] = biological target: T14, (α4)3(β2)2 (LS isoform) α4β2 nAChR β2S133V (Homo sapiens, UniProt P17787+P43681, S133V); experiment: Two-electrode voltage clamp, Xenopus oocytes, LS α4β2 nAChR β2S133V; type: cell-based
# T14 construct: expressed in transfected cells; host or cells: Xenopus laevis oocytes, nuclear injection of cDNA in plasmid pCI
# [18] = biological target: T15, (α4)2(β2)3 (HS isoform) α4β2 nAChR β2S133Vα4T139V (Homo sapiens, UniProt P17787+P43681, S133V/T139V); experiment: Two-electrode voltage clamp, Xenopus oocytes, HS α4β2 nAChR β2S133Vα4T139V; type: cell-based
# T15 construct: expressed in transfected cells; host or cells: Xenopus laevis oocytes, nuclear injection of cDNA in plasmid pCI
# [19] = biological target: T16, (α4)3(β2)2 (LS isoform) α4β2 nAChR β2S133Vα4T183V (Homo sapiens, UniProt P17787+P43681, S133V/T183V); experiment: Two-electrode voltage clamp, Xenopus oocytes, LS α4β2 nAChR β2S133Vα4T183V; type: cell-based
# T16 construct: expressed in transfected cells; host or cells: Xenopus laevis oocytes, nuclear injection of cDNA in plasmid pCI
# [20] = biological target: T17, (α4)2(β2)3 (HS isoform) α4β2 nAChR α4T139V (Homo sapiens, UniProt P17787+P43681, T139V); experiment: Two-electrode voltage clamp, Xenopus oocytes, HS α4β2 nAChR α4T139V; type: cell-based
# T17 construct: expressed in transfected cells; host or cells: Xenopus laevis oocytes, nuclear injection of cDNA in plasmid pCI
# [21] = tested on: human 5-HT3 serotonin receptor; settings: cited from earlier work
# [22] = biological target: T18, (α4)3(β2)2 (LS isoform) α4β2 nAChR β2S133Vα4T139V (Homo sapiens, UniProt P17787+P43681, S133V/T139V); experiment: Two-electrode voltage clamp, Xenopus oocytes, LS α4β2 nAChR β2S133Vα4T139V; type: cell-based
# T18 construct: expressed in transfected cells; host or cells: Xenopus laevis oocytes, nuclear injection of cDNA in plasmid pCI
# [23] = cited from earlier work
# [24] = biological target: α4β2; settings: read-out: affinity at α4β2; cited from earlier work
# [25] = mean + SEM, read-out: pIC50, inhibition of [3H]GR65630 binding (converted)
# [26] = co-applied with ACh EC80 300 µM
# [27] = [3H]GR65630 0.3 nM, read-out: IC50, inhibition of [3H]GR65630 binding
smiles,measurement,setting,value
c1ccc2cc3c(cc2c1)C1CNCC3C1 [C2 varenicline 4],RE,[1],0.102 ± 0.012 ^a
same,fold increase in EC50 vs varenicline 1,[1],10 fold
same,fold reduction of efficacy vs varenicline 1,[1],4 fold
same,EC50,"[1]; Table 3, LS (α4)3(β2)2, varenicline variants series, read-out: EC50",11.5 ± 1.74 µM
same,Ki,[2],0.0143 ± 0.0016 µM
same,fold decrease in affinity compared to varenicline 1,[2],approximately 30 fold
same,Ki,[3],1.32 µM
same,protonated fraction of ammonium center,[4],≥ 90%
same,pKa,[5],9.63 ± 0.08
same,functional response at 5-HT3A receptors,[6],No signiﬁcant responses
same,Ki ratio α3β4/α4β2,[7],18.7
same,Ki,"[7]; competition with [3H]epibatidine 0.25 nM, Cheng-Prusoff",0.267 ± 0.073 µM
same,RE,[8],0.022 ± 0.0033 ^a
same,fold increase in EC50 vs varenicline 1,[8],10 fold
same,fold reduction of efficacy vs varenicline 1,[8],6 fold
same,EC50,"[8]; Table 3, HS (α4)2(β2)3",2.64 ± 0.8 µM
same,IC50,[9],11 ± 1.2 µM
same,fold increase of IC50 against [3H]GR65630 compared to varenicline 1,[10],44 fold
same,IC50,[10]; [25],13.6 µM
same,IC50,[11]; [26],33 ± 14 µM
"O=c1cccc2n1C[C@@H]1CNC[C@H]2C1 [Cytisine 3, cytisine]",EC50,[1],2.9 ± 0.8 µM
same,"RE (relative efficacy, I/ImaxACh)",[1],0.23 and 0.23 ± 0.08
same,"RE (relative efficacy, I/ImaxACh)",[12],0.021 ± 0.003
same,pKa,[5]; pKa value,8.07
same,"RE (relative efficacy, I/ImaxACh)",[13],0.018 ± 0.003
same,EC50,[14],4.6 ± 1 µM
same,"RE (relative efficacy, I/ImaxACh)",[14],0.22 ± 0.02
same,"RE (relative efficacy, I/ImaxACh)",[15],0.016 ± 0.002
same,EC50,[16],2.5 ± 0.7 µM
same,"RE (relative efficacy, I/ImaxACh)",[16],0.19 ± 0.02
same,EC50,[17],5.1 ± 1 µM
same,"RE (relative efficacy, I/ImaxACh)",[17],0.21 ± 0.01
same,"RE (relative efficacy, I/ImaxACh)",[18],0.022 ± 0.009
same,EC50,[19],6.9 ± 1.5 µM
same,"RE (relative efficacy, I/ImaxACh)",[19],0.19 ± 0.01
same,"RE (relative efficacy, I/ImaxACh)",[8],0.025 and 0.025 ± 0.004
same,"RE (relative efficacy, I/ImaxACh)",[20],0.023 ± 0.001
same,fold less potent than varenicline 1,[21],"2,000 fold"
same,EC50,[22],5.8 ± 1.4 µM
same,"RE (relative efficacy, I/ImaxACh)",[22],0.18 ± 0.01
c1ccc2nc3c(nc2c1)C1CNCC3C1 [Isovarenicline 5],RE,[1],0.054 ± 0.013 ^a
same,fold reduction of efficacy vs varenicline 1,[1],7 fold
same,EC50,[1]; read-out: EC50,26 ± 8.5 µM
same,Ki,[2]; read-out: Ki α4β2,5.46 µM
same,Ki,[3],127 µM
same,protonated fraction of ammonium center,[4],≥ 90%
same,pKa,[5],8.44 ± 0.09
same,functional response at 5-HT3A receptors,[6],No signiﬁcant responses
same,Ki,[7],67.7 µM
same,Ki ratio α3β4/α4β2,[7],12
same,RE,[8],0.0071 ± 0.00086 ^a
same,fold reduction of efficacy vs varenicline 1,[8],20 fold
same,EC50,"[8]; Table 3, HS (α4)2(β2)3",13.3 ± 2.5 µM
same,IC50,[9],70 ± 12 µM
same,fold increase of IC50 against [3H]GR65630 compared to varenicline 1,[10],165 fold
same,IC50,[10]; [27],49.6 µM
same,IC50,[11],142 ± 21 µM
c1cnc2nc3c(nc2n1)C1CNCC3C1 [N2 varenicline 6],RE,[1],0.0032 ± 0.0023 ^a
same,pKa,[5],7.31 ± 0.05
same,functional response at 5-HT3A receptors,[6],No signiﬁcant responses
same,RE,[8],0.0010 ± 0.0001 ^a
same,IC50,[9]; co-applied with ACh EC80 30 µM,> 1000 µM
same,fold increase of IC50 against [3H]GR65630 compared to varenicline 1,[10],250 fold
same,IC50,[10]; [27],75.8 µM
same,IC50,[11]; [26],> 1000 µM
"c1cnc2cc3c(cc2n1)[C@@H]1CNC[C@H]3C1 [Varenicline 1, varenicline, reference compound]",RE,"[1]; Table 3, LS (α4)3(β2)2, relative to maximal ACh response",0.38 ± 0.025
same,pKa,[4],8.9 ± 0.1
same,EC50,"[6]; EC50, activation of 5-HT3A receptors, membrane-potential sensitive dye",0.4 µM
same,EC50,"[6]; pEC50, activation of 5-HT3A receptors, mean + SEM",0.437 µM
same,reduction of RE vs WT,[16],50%
same,RE,"[8]; Table 3, HS (α4)2(β2)3, relative to maximal ACh response",0.14 ± 0.012
same,IC50,[10]; [25],0.304 µM
same,"pKa, literature value",[23]; ref Pfizer[80],9.2
same,"pKa, literature value",[23]; ref Rollema et al.[81],9.3
same,"pKa, literature value",[23]; ref Unal et al.[82],9.22 ± 0.13
"c1ccc2c(c1)C1CNCC2C1 [benzo variant, 2,3,4,5-tetrahydro-1H-1,5-methanobenzo[d]azepine]",Ki,[24],0.02 µM
